Experimental data reported in paper doi:10.1101/2022.08.09.502705v1 (biorxiv, 2022).

What was measured:
iFluoxSnFR [1] = assay: fluorescence concentration-response of purified biosensor; format: binding; details: purified protein
hSERT = hSERT (Homo sapiens, UniProt P31645, K490T); assay: cell-based
iFluoxSnFR [2] = assay: isothermal titration calorimetry; format: binding; details: 3x PBS pH […] °C
iEscSnFR [3] = assay: fluorescence concentration-response of purified biosensor; format: binding; details: purified protein
iEscSnFR [4] = assay: isothermal titration calorimetry; format: binding; details: 3x PBS pH […] °C

Chain of hSERT (P31645 whole entry K490T): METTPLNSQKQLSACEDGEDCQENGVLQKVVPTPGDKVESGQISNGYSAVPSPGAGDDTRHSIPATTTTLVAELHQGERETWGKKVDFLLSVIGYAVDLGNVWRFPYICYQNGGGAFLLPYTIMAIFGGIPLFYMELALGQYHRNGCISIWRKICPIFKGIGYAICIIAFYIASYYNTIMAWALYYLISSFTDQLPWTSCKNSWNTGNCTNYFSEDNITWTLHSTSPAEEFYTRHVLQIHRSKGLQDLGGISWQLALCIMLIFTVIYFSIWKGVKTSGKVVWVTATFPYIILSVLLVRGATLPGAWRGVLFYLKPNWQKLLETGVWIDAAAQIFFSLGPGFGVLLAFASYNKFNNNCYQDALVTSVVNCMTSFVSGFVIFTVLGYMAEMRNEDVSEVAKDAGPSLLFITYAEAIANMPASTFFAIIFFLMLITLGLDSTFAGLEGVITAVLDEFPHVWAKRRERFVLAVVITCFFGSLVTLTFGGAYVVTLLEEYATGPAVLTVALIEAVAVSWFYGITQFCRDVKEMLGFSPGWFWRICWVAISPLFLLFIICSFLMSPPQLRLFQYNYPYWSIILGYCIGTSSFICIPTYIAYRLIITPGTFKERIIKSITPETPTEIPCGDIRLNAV

Row | Structure (SMILES) | EC50 (iFluoxSnFR [1]) | EC50 (iEscSnFR [3]) | further results
1 | C[N+](C)(C)CCC(Oc1ccc(C(F)(F)F)cc1)c1ccccc1 (racemic) [N-N-dimethylfluoxetine] | 14 ± 0.4 µM | – | IC50 (hSERT): 0.6 ± 0.2 µM; Kd (iFluoxSnFR [2]): 28.1 ± 3.7 µM
2 | C[N+](C)(C)CCC[C@@]1(c2ccc(F)cc2)OCc2cc(C#N)ccc21 [N-methylescitalopram] | – | 1.8 ± 0.2 µM | –
3 | C[N+](C)(C)CCO [choline] | – | 140 ± 20 µM | –

Further lines, with some results ahead:

Row | EC50 (iFluoxSnFR [1]) | EC50 (iEscSnFR [3]) | Structure (SMILES) | further results
4 | 63 ± 20 µM | – | NCCC(Oc1ccc(C(F)(F)F)cc1)c1ccccc1 (centres unmarked) [norfluoxetine] | –
5 | – | 4.5 ± 0.2 µM | CN(C)CCC[C@@]1(c2ccc(F)cc2)OCc2cc(C#N)ccc21 [escitalopram] | Kd (iEscSnFR [4]): 3.4 ± 0.1 µM
